Reference: patent publication US5006522A, “Condensed diazepinones, processes for preparing them and pharmaceutical compositions containing these compounds” (Karl Thomae GmbH, priority 1988, dated 1991)

Assays:
[1] = system: secretion of saliva; assay: Salivation-inhibiting effect in the rat (pilocarpine); type: in vivo, rat (male THOM); details: iv, urethane anaesthesia, pilocarpine 2 mg/kg s.c., read-out: -log ED50, Salivation inhibition (converted)
Method: The secretion of saliva was initiated by subcutaneous administration of 2 mg/kg of pilocarpine. The saliva was absorbed with blotting paper and the surface area covered was measured every 5 minutes by planimetry. The dosage of the substance which reduced the volume of saliva by 50% was determined graphically. For the results see Table II.

[2] = system: acetylcholine effect on bronchi; assay: Inhibition of the effect of acetylcholine on the bronchi in guinea pigs; type: in vivo; details: Cavia porcellus, iv, 5 min; guinea pig, acetylcholine 10 microgram/kg i.v. and i.a., 5 min after substance; read-out: -log ED50, Bronchi (converted)
Method: (§1) 5 minutes after the administration of the test substance, 10 microgram/kg of acetylcholine were simultaneously injected intravenously and intraarterially into anaesthetised guinea pigs. The heart rate was recorded directly by extracorporeal derivation of the ECG, the expiration resistance according to Konzett-Robler and contraction of the exposed bladder. In order to determine the inhibition of the acetylcholine activity on the organs under investigation, dosage/activity curves were recorded and from them -log ED50 values were determined.

[3] = molecular target: T1, muscarinic receptors (submandibular gland) (Rattus norvegicus, UniProt P08483); assay: Binding to muscarinic receptors, 3H-NMS displacement, submandibular gland; set-up: species or system rat (male Sprague-Dawley); details: for IC50: 0.3 nM 3H-NMS, 30° C., 45 min, pH 7.4, read-out: IC50 receptor binding test, Submandibular gland (SM); for Selectivity factor [drawing 24]: head is a drawing, values equal IC50 SM / IC50 H
T1 construct: After the heart and submandibular gland and cerebral cortex had been removed; from tissue; host or cells: homogenate of rat submandibular gland
T1 sequence (P08483 whole entry): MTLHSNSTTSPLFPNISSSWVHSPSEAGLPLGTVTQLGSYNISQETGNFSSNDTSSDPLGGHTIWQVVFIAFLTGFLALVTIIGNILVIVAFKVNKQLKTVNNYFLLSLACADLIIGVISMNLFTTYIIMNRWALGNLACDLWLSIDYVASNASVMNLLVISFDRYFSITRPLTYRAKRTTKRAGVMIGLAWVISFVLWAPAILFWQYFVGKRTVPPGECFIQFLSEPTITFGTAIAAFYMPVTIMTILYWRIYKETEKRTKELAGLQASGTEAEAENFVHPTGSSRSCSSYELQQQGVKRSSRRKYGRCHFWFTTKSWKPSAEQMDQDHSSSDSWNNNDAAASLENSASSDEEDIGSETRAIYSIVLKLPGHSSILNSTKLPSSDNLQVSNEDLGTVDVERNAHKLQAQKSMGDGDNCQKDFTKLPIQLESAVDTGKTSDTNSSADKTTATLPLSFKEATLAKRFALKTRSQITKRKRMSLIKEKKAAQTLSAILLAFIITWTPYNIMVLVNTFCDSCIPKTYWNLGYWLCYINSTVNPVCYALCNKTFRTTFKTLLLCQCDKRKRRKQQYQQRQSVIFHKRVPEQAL
Method: (§2) The organs were donated by male Sprague-Dawley rats weighing 180-220 g After the heart and submandibular gland and cerebral cortex had been removed, all other steps were carried out in ice-cold Hepes HCl buffer (pH 7.4; 100 millimolar NaCl, 10 millimolar MgCl2). The whole heart was cut up with scissors. All the organs were then homogenised in a Potter apparatus.
(§3) For the binding test the homogenised organs were diluted as follows:
(§4) The homogenised organs were incubated at a given concentration of the radioligand and at a series of concentrations of the non-radioactive test substances in an Eppendorf centrifuge tube at 30° C. Incubation lasted 45 minutes. The radioligand used was 0.3 nanomolar ^3 H-N-methylscopolamine (^3 H-NMS). Incubation was ended by the addition of ice-cold buffer followed by vacuum filtration. The filters were rinsed with cold buffer and their radioactivity was determined. This represents the sum of specific and non-specific binding of ^3 H-NMS. The proportion of non-specific binding was defined as the radioactivity which was bound in the presence of 1 micromolar quinuclidinylbenzylate. Each measurement was taken four times. The IC50 values of the non-labelledtest substances were determined graphically. They represent that concentration of test substance at which the specific binding of ^3 H-NMS to the muscarinic receptors in the various organs was inhibited by 50%.

[4] = molecular target: muscarinic receptors (cerebral cortex); assay: Binding to muscarinic receptors, 3H-NMS displacement, cerebral cortex; set-up: species or system rat (male Sprague-Dawley); details: for IC50: 0.3 nM 3H-NMS, 30° C., 45 min, pH 7.4, read-out: IC50 receptor binding test, Cortex (C); for Selectivity factor [drawing 25]: head is a drawing, values equal IC50 C / IC50 H
Method: as §2, §3, §4

[5] = molecular target: T2, M2 (Rattus norvegicus, UniProt P10980); assay: M1/M2 selectivity in the rat: reduction of vagal bradycardia (M2); type: in vivo, rat (male THOM); details: iv, 5 min, i.v., 5 min before right vagus stimulation, read-out: -log ED50, Heart (vagal bradycardia, M2) (converted)
T2 construct: from tissue; host or cells: heart of the living rat (in vivo)
T2 sequence (P10980 1-466): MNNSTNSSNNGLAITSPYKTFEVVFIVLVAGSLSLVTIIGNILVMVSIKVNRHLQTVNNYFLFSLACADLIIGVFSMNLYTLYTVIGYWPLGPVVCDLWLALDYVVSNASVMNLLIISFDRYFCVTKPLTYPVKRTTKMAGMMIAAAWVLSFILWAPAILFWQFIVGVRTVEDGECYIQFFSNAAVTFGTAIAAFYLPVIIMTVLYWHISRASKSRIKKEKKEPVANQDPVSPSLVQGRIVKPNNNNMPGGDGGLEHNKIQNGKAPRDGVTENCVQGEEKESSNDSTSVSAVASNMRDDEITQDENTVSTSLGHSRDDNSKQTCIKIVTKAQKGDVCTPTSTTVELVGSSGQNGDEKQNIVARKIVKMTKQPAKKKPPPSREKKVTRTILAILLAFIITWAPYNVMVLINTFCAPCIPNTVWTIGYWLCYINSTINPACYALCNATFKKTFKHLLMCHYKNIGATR
Method: The method used was described by Hammer and Giachetti (Life Sciences 31, 2991-2998 (1982)). 5 minutes after the intravenous injection of increasing doses of the substance, either the right vagus was electrically stimulated (frequency: 25 Hz; pulse width: 2 ms; duration of stimulus: 30s; voltage: supramaximal) or 0.3 mg/kg of McN-A-343 were intravenously injected into male THOM rats. The bradycardia caused by vagus stimulation and the rise in blood pressure caused by McN-A-343 were determined. The dosage of the substances which reduced either the vagal bradycardia (M2) or the rise in blood pressure (M1) by 50% was determined graphically. For the results see Table II.

[6] = system: acetylcholine effect on bladder; assay: Inhibition of the effect of acetylcholine on the bladder in guinea pigs; type: in vivo; details: Cavia porcellus, iv, 5 min; guinea pig, acetylcholine 10 microgram/kg i.v. and i.a., 5 min after substance; read-out: -log ED50, Bladder (converted)
Method: as §1

[7] = molecular target: T3, M1 (Rattus norvegicus, UniProt P08482); assay: M1/M2 selectivity in the rat: reduction of McN-A-343 induced rise in blood pressure (M1); type: in vivo, rat (male THOM); details: iv, 5 min, i.v., 5 min before 0.3 mg/kg McN-A-343 i.v., read-out: -log ED50, Blood pressure (M1) (converted)
T3 construct: from tissue; host or cells: living rat (in vivo; sympathetic ganglia by own knowledge)
T3 sequence (P08482 1-460): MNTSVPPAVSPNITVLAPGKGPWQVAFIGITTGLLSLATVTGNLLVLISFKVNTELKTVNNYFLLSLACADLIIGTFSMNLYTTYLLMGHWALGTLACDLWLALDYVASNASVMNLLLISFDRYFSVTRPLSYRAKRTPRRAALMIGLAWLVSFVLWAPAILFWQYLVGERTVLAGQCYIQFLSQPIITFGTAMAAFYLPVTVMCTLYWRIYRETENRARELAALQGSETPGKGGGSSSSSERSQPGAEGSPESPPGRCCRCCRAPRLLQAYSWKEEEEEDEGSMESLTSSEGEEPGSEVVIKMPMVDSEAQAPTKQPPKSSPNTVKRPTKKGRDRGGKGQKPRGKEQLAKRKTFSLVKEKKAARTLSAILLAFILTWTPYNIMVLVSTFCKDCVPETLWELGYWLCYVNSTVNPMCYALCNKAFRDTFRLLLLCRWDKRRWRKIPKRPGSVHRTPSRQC
Method: The dosage of the substances which reduced either the vagal bradycardia (M2) or the rise in blood pressure (M1) by 50% was determined graphically. For the results see Table II.

[8] = system: acetylcholine effect on heart rate; assay: Inhibition of the effect of acetylcholine on heart rate in guinea pigs; type: in vivo; details: Cavia porcellus, iv, 5 min; guinea pig, acetylcholine 10 microgram/kg i.v. and i.a., 5 min after substance; read-out: -log ED50, Heart (heart rate) (converted)
Method: as §1

[9] = molecular target: T4, muscarinic receptors (heart) (Rattus norvegicus, UniProt P10980); assay: Binding to muscarinic receptors, 3H-NMS displacement, heart; set-up: species or system rat (male Sprague-Dawley); details: for IC50: 0.3 nM 3H-NMS, 30° C., 45 min, pH 7.4, read-out: IC50 receptor binding test, Heart (H); for potency compared with compound D: Table I, receptor binding, same selectivity maintained
T4 construct: The whole heart was cut up with scissors; All the organs were then homogenised in a Potter apparatus; from tissue; host or cells: homogenate of rat whole heart
T4 sequence (P10980 1-466): T2 sequence (P10980 1-466)
Method: as §2, §3, §4

[10] = Water solubility of the monohydrochloride; type: physicochemical
[11] = molecular target: T5, histamine-H1 receptor (Rattus norvegicus, UniProt P31390); assay: Binding to the histamine-H1 receptor (3H-pyrilamine); details: 2 nM 3H-pyrilamine, ambient temperature, 60 min, whole rat brain without cerebellum
T5 construct: whole rat brains were used without the cerebellum; from tissue; host or cells: membranes of whole rat brain without cerebellum
T5 sequence (P31390 whole entry): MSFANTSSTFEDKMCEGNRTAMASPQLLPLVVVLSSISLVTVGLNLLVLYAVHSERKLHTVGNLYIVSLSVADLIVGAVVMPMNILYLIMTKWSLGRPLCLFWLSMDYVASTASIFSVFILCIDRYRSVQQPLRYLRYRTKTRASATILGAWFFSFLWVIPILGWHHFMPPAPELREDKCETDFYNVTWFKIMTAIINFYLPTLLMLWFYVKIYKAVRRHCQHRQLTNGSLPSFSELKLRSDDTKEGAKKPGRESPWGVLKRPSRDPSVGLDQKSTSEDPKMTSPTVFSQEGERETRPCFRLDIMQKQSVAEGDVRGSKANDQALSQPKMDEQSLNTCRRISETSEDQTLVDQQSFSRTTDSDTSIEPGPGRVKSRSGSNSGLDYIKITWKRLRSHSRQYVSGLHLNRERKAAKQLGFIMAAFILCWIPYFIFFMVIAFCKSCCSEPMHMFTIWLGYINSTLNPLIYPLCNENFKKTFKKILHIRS
Method: In these tests, whole rat brains were used without the cerebellum. The tissue was homogenised in a phosphate buffer pH 7.5 according to Sorensen using the Ultra-Turrax. The homogenised material was then washed twice and centrifuged at 50,000×g. The pellet was taken up in a dilution, based on the starting tissue, of 1:100. […] The reactions were also ended by vacuum filtration and the radioactivity of the filters was measured. The non-specific binding was determined using mixtures which contained 10 micromolar triprolidine. The results were evaluated as in the studies of binding to the imipramine receptor.

SMILES	ED50 [1] [µmol/kg]	ED50 [2] [µmol/kg]	IC50 [3] [nM]	Selectivity factor [drawing 24] [3]	IC50 [4] [nM]	Selectivity factor [drawing 25] [4]	ED50 [5] [µmol/kg]	ED50 [6] [µmol/kg]	ED50 [7] [µmol/kg]	ED50 [8] [µmol/kg]	IC50 [9] [nM]	potency compared with compound D [9]	water solubility (monohydrochloride) [10]	IC50 [11] [nM]
CCN(CC)CC1CCCCN1CC#CCN1c2ccccc2C(=O)Nc2cccnc21 (stereo not shown) [C, 11-[4-[2-[(diethylamino)methyl]-1-piperidinyl]but-2-ynyl]-5,11-dihydro-6H-pyrido[2,3-b][1,4]benzodiazepin-6-one]	7.59	1.58	700	38.9	200	11.1	0.0302	> 2.29	1.1	0.245	18	considerably higher potency	–	–
Cl.O=C1Nc2ccccc2N(CCCCCCN2CCCCCC2)c2ccccc21 [Example 16, 5,10-Dihydro-5-[6-(hexahydro-1H-1-azepinyl)hexyl]-11H-dibenzo[b,e][1,4]diazepin-11-one hydrochloride]	–	–	–	–	–	–	–	–	–	–	–	–	sparingly soluble in water	–
CCN(CC)CC1CCCCN1CC(=O)N1c2ccccc2C(=O)Nc2cccnc21 (stereo not shown) [D, 11-[[2-[(diethylamino)methyl]-1-piperidinyl]acetyl]-5,11-dihydro-6H-pyrido[2,3-b][1,4]benzodiazepin-6-one, reference compound]	10	–	–	–	–	–	–	–	–	–	–	–	–	–
CCN(CC)CC1CCCCN1CCCCN1c2ccccc2C(=O)Nc2cccnc21 (stereo not shown) [B, 11-[4-[2-[(diethylamino)methyl]-1-piperidinyl]butyl]-5,11-dihydro-6H-pyrido[2,3-b][1,4]benzodiazepin-6-one]	3.16	0.646	80	40	20	10	0.0398	> 10	0.676	0.468	2	considerably higher potency	–	9000
CN1[C@@H]2CC[C@H]1C[C@@H](OC(=O)C(CO)c1ccccc1)C2 (stereo partly shown) [F, atropine, reference compound]	–	–	–	–	–	–	–	–	–	0.02	–	–	–	–
O=C1Nc2cccnc2N(CCCCCCN2CCCCC2)c2ccccc21 [A, 5,11-dihydro-11-[6-(1-piperidinyl)hexyl]-6H-pyrido[2,3-b][1,4]benzodiazepin-6-one]	0.447	0.0851	10	16.7	4	6.7	0.011	1.29	0.295	0.0661	0.6	considerably higher potency	–	–
